Measurements published in the supplement of paper PMC12076712.
Each block holds one molecule with its values, some of them ahead of it.

Assays:
GSTM1 = GSTM1 (UniProt P09488); assay: pIC50, competition of probe 3 labelling in live cells; details: cell material: Jurkat cells
IRAK4 = biological target: T1, IRAK4 (UniProt Q9NWZ3); assay: as above; details: cell material: Jurkat cells
T1 sequence (whole entry): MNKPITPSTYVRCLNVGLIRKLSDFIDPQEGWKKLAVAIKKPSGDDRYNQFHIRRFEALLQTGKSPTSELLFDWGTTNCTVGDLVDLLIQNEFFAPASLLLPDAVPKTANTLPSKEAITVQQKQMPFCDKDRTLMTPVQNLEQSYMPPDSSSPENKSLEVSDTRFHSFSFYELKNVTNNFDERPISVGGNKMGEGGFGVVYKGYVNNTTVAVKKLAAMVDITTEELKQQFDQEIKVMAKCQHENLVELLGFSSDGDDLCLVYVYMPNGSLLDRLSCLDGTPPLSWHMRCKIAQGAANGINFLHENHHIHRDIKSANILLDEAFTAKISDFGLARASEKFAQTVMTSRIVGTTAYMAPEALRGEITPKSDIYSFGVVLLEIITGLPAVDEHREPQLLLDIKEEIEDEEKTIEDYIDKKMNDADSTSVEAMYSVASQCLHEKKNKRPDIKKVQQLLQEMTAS

MGLL = MGLL (UniProt Q99685); assay: as above; details: cell material: Jurkat cells
RPS6KA4 = RPS6KA4 (UniProt O75676); assay: as above; details: cell material: Jurkat cells
RPS6KA4, sequence (O75676 whole entry, looked up): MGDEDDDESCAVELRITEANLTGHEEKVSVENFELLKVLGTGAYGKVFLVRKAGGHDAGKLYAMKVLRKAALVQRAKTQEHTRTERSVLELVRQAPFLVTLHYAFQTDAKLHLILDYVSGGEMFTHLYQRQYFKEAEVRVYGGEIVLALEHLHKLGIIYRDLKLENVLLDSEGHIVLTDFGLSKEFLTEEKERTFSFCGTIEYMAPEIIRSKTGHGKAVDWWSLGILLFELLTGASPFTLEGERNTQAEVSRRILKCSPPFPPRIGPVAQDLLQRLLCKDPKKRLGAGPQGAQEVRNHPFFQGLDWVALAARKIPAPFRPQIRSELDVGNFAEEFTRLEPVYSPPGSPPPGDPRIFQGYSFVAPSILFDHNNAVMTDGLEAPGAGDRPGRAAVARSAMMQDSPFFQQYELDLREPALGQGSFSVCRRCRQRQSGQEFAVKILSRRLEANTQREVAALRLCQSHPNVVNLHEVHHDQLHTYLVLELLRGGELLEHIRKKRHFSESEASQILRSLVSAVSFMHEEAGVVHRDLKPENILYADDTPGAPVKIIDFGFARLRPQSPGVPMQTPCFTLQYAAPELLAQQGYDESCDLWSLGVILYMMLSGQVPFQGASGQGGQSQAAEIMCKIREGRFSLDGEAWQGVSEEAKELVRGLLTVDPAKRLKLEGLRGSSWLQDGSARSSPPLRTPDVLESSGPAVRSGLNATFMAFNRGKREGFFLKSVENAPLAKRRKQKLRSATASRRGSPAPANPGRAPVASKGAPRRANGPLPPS

UniProt O96017 = assay: as above; details: cell material: Jurkat cells
UniProt O96017, sequence (O96017 whole entry): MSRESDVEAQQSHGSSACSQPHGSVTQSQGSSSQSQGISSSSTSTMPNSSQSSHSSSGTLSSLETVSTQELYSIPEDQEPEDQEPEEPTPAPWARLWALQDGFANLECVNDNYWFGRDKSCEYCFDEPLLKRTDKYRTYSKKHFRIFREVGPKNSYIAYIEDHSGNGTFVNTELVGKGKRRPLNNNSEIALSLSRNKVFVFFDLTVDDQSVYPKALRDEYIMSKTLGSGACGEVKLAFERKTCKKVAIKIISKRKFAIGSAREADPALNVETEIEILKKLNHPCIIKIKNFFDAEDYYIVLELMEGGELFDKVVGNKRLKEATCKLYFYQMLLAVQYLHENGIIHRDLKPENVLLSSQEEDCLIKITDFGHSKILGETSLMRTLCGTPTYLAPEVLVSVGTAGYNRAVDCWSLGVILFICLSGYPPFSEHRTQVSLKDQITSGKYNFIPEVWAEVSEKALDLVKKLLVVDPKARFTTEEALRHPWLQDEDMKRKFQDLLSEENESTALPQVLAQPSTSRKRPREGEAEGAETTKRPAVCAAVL

UniProt Q9H093 = assay: pIC50, kinobeads binding competition; details: cell material: Lysate mix
UniProt Q9H093, sequence (Q9H093 whole entry): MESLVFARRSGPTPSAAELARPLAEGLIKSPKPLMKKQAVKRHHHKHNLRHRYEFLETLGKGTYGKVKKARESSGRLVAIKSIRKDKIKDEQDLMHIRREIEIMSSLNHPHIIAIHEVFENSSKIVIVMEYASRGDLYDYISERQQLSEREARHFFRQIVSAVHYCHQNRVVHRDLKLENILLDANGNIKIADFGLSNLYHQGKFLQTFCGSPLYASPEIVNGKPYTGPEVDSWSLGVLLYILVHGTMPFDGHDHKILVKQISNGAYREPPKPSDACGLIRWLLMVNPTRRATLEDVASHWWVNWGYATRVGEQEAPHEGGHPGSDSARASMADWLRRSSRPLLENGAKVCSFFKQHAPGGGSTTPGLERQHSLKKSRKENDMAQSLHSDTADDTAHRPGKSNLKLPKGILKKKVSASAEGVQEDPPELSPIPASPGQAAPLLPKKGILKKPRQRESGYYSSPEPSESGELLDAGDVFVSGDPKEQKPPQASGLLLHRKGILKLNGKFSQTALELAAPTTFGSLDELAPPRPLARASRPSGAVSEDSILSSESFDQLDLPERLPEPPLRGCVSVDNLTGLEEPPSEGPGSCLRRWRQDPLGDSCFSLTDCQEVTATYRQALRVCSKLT
Summary of the method: (§1)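 Nine compound concentrations were tested, starting at 30 μM in 1:4 steps on live Jurkat cells (60 min, 37 °C, then lysis) or in 1:5 steps on Jurkat lysate or a 1:1:1:1 HEK293/K-562/HepG2/placenta lysate mix (60 min, 4 °C). Kinobeads-bound proteins were digested and quantified with TMT10 LC-MS/MS. pIC50 values are from logistic dose-response fits in the R drc package of fold changes relative to vehicle, from biological duplicates.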

UniProt Q6XUX3 = assay: pIC50, kinobeads binding competition; details: cell material: Lysate mix
UniProt Q6XUX3, sequence (Q6XUX3 whole entry): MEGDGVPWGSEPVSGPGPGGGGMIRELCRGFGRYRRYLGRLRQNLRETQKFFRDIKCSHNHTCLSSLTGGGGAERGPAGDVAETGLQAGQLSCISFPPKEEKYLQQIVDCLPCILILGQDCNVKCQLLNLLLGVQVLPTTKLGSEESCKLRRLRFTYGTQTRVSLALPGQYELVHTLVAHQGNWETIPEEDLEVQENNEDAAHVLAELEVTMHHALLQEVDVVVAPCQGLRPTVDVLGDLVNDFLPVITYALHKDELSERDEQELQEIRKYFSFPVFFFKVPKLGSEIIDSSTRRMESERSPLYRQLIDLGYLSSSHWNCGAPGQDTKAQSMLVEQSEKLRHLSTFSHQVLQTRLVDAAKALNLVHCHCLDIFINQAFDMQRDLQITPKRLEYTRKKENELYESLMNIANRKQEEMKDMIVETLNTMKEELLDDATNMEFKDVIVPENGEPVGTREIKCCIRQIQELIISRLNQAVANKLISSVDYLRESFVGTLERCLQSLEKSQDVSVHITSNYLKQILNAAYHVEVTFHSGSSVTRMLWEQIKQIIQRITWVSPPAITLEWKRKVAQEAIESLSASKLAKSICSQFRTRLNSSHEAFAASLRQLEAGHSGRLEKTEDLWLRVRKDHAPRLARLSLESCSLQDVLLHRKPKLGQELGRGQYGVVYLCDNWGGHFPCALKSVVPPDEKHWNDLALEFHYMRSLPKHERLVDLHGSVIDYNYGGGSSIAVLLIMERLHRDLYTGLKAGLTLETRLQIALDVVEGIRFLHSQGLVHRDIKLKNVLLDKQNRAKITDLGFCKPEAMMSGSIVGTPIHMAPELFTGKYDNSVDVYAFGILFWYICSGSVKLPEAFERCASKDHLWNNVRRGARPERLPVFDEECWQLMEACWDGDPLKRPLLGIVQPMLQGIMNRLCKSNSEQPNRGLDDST
Summary of the method: as §1

CAMK1D = CAMK1D (UniProt Q8IU85); assay: pIC50, kinobeads binding competition
CAMK1D, sequence (Q8IU85 whole entry, looked up): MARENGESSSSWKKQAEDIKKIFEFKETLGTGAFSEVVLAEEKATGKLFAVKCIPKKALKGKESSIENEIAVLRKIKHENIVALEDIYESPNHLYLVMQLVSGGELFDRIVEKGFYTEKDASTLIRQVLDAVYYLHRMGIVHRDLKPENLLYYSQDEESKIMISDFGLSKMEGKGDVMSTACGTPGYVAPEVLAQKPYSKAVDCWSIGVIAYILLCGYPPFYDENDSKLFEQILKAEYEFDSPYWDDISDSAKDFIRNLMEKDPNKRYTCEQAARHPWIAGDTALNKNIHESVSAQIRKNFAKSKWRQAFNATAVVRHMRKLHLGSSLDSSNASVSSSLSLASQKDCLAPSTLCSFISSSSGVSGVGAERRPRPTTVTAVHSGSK
Summary of the method: as §1

CAMK4 = biological target: T2, CAMK4 (UniProt Q16566); assay: pIC50, kinobeads binding competition
T2 sequence (whole entry): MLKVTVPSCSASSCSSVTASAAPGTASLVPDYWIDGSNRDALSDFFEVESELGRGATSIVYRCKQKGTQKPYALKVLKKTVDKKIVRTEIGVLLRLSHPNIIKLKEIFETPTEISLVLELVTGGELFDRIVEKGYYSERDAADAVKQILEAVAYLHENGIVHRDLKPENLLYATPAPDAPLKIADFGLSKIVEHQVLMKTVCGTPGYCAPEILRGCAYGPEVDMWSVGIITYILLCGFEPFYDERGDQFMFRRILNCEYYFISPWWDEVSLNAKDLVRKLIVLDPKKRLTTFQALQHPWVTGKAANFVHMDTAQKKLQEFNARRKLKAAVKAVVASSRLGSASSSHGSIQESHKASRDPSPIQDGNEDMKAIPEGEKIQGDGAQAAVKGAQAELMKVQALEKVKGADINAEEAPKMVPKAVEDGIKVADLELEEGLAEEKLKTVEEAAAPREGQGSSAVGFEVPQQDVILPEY
Summary of the method: as §1

PRKG2 = biological target: T3, PRKG2 (UniProt Q13237); assay: pIC50, kinobeads binding competition; details: cell material: Jurkat lysate
T3 sequence (whole entry): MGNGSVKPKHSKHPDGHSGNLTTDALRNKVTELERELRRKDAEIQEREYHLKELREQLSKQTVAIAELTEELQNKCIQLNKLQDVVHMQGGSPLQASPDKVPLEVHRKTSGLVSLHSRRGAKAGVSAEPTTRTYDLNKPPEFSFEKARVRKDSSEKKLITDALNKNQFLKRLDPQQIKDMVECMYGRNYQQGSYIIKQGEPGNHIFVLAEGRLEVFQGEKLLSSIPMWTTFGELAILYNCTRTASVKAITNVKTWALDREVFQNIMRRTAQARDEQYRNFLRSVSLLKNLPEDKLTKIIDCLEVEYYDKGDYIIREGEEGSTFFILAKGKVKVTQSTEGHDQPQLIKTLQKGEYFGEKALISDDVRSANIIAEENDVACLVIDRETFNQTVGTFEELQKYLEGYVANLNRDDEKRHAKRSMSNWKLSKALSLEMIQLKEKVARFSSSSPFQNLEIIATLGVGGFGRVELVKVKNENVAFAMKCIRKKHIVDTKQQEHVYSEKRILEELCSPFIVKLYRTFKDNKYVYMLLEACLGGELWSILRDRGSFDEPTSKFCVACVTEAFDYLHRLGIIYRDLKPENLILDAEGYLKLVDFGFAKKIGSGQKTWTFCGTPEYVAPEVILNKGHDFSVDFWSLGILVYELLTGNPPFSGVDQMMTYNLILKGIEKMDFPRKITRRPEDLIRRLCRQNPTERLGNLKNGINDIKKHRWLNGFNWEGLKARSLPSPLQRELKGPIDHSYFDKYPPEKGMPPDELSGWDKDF
Summary of the method: as §1

RIPK3 = RIPK3 (UniProt Q9Y572); assay: pIC50, kinobeads binding competition
RIPK3, sequence (Q9Y572 whole entry, looked up): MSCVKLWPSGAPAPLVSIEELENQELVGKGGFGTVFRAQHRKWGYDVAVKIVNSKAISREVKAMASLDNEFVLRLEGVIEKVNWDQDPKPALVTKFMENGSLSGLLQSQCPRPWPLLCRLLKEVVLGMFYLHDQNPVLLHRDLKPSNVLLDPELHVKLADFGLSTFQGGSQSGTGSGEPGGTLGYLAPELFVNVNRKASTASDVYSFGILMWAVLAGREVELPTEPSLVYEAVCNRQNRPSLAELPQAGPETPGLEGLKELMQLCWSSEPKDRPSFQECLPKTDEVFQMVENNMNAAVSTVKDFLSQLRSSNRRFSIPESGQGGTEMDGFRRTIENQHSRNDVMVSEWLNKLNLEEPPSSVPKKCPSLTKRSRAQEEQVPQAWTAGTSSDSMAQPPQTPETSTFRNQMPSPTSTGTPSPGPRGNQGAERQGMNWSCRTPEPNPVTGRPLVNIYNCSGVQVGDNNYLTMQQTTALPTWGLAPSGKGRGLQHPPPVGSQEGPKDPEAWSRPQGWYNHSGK
Summary of the method: as §1

TRRAP = TRRAP (UniProt Q9Y4A5); assay: pIC50, kinobeads binding competition; details: cell material: Jurkat cells
Summary of the method: as §1

TLK1 = TLK1 (UniProt Q9UKI8); assay: pIC50, kinobeads binding competition
TLK1, sequence (Q9UKI8 whole entry): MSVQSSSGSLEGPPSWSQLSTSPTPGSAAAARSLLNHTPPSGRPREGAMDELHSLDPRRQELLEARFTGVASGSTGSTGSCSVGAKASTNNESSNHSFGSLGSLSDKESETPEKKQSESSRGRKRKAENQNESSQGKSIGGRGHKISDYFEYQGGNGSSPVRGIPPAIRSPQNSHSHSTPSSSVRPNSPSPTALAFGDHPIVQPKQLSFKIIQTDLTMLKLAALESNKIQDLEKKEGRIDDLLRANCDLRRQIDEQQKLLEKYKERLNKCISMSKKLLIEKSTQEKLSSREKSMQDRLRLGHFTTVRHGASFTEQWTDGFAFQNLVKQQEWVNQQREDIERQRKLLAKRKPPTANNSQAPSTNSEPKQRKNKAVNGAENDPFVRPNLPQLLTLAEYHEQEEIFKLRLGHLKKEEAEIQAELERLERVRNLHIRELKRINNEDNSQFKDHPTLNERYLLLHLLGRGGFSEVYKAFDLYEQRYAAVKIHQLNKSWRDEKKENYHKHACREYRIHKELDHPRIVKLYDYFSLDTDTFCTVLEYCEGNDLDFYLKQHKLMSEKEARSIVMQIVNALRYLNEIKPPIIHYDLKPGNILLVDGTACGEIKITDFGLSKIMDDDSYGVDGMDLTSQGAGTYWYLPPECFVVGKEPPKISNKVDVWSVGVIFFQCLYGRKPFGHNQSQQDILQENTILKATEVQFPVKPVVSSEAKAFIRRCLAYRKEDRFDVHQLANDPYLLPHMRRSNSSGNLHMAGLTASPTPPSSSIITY
Summary of the method: as §1

GSTM1, sequence (P09488 whole entry): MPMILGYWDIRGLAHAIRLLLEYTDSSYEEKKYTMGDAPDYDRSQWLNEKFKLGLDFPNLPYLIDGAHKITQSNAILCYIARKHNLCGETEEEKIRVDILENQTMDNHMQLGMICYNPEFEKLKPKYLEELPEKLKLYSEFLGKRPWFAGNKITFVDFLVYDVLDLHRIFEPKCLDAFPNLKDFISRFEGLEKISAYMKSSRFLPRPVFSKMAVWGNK

pIC50 (GSTM1): < 4.52 | pIC50 (IRAK4): < 4.52 | pIC50 (MGLL): < 4.52 | pIC50 (RPS6KA4): < 4.52 | pIC50 (UniProt O96017): < 4.52
SMILES: CC#CC(=O)Nc1ccc2ncnc(Nc3cccc(Br)c3)c2c1 [EKI-785]

pIC50 (UniProt Q9H093): < 4.52
SMILES: Cc1cc(Nc2cc(C(=O)NCCNC(=O)OC3CC/C=C/CCC3)nc(N3CCN(Cc4ccc(S(=O)(=O)F)cc4)CC3)n2)n[nH]1 (centres undefined)

pIC50 (UniProt Q6XUX3): 5
SMILES: C#CCNC(=O)c1cc(Nc2cc(C)[nH]n2)nc(N2CCN(Cc3ccc(S(=O)(=O)F)cc3)CC2)n1

pIC50 (CAMK1D; cell material: Jurkat cells): 5.82 | pIC50 (CAMK4; cell material: Jurkat cells): < 4.52 | pIC50 (CAMK4; cell material: Jurkat lysate): < 4.52 | pIC50 (PRKG2): < 4.52 | pIC50 (RIPK3; cell material: Jurkat lysate): < 4.52 | pIC50 (TRRAP): < 4.52 | pIC50 (UniProt Q6XUX3): 5.77 | pIC50 (UniProt Q9H093): < 4.52
SMILES: O=C(NCCNC(=O)c1cc(Nc2cc(C3CC3)[nH]n2)nc(N2CCN(Cc3ccc(S(=O)(=O)F)cc3)CC2)n1)OC1CC/C=C/CCC1 (centres undefined)

SMILES: C#CCNC(=O)c1cc(Nc2cc(C3CC3)[nH]n2)nc(N2CCN(Cc3ccc(S(=O)(=O)F)cc3)CC2)n1
pIC50 (CAMK1D; cell material: Jurkat cells): 5.94 | pIC50 (CAMK1D; cell material: Jurkat lysate): < 4.52 | pIC50 (CAMK4; cell material: Jurkat cells): 5.09 | pIC50 (PRKG2): < 4.52 | pIC50 (RIPK3; cell material: Jurkat cells): 4.85 | pIC50 (RIPK3; cell material: Jurkat lysate): 4.67 | pIC50 (TLK1; cell material: Jurkat cells): 4.82 | pIC50 (TRRAP): < 4.52

pIC50 (TLK1; cell material: Lysate mix): 4.92
SMILES: CCNC(=O)c1cc(Nc2cc(C)[nH]n2)nc(N2CCN(Cc3ccc(S(=O)(=O)F)cc3)CC2)n1

pIC50 (GSTM1): < 4.52 | pIC50 (IRAK4): < 4.52 | pIC50 (MGLL): < 4.52 | pIC50 (RPS6KA4): < 4.52 | pIC50 (UniProt O96017): < 4.52
SMILES: CCc1cnn2c(NCc3ccc[n+]([O-])c3)cc(N3CCCC[C@H]3CCO)nc12 [dinaciclib]
